Like-named read-outs stand apart in the source and are kept apart here.
Tests used:
[1] = 3.0-T, Water; value marked with footnote a (footnote not given); cited from earlier work
[2] = value marked with footnote a (footnote not given); cited from earlier work
HSA [3] = biological target: T1, HSA (Homo sapiens, UniProt P02768)
Procedure: (§1) The HSA binding affinity was measured using ultrafiltration analysis.

liver = experiment: 3.0T MR imaging of liver and gallbladder in normal mice versus commercial contrast agents; type: in vivo; details: 5min to 120min after injection, FIG. 9
[4] = Relaxability (r1 and r2) under 3.0T and 9.4T magnetic fields in water and HSA; type: physicochemical
HSA [5] = biological target: T1, HSA; experiment: HSA binding affinity by ultrafiltration analysis
Procedure: as §1

C6 glioma = experiment: MR imaging of brain cancer model; type: in vivo; details: 0.1 mmol/kg Gd-DO3A-butrol versus 0.05 mmol/kg Gd-PCTA-Ach; FIG. 8A
Procedure: After a brain cancer model was prepared using C6 glioma which is a brain cancer cell, 0.1mmol/kg of Gd-PCTA-Ach 0.1mmol/kg, Gd-PCTA-Ach 0.05mmol/kg, and Gd-DO3A-butrol were injected thereto, respectively, to obtain MR images (FIG. 8A) and CNR graphs (FIG. 8B) according to the MR images, and the results are shown in FIG. 8.

T1 sequence (P02768 25-609): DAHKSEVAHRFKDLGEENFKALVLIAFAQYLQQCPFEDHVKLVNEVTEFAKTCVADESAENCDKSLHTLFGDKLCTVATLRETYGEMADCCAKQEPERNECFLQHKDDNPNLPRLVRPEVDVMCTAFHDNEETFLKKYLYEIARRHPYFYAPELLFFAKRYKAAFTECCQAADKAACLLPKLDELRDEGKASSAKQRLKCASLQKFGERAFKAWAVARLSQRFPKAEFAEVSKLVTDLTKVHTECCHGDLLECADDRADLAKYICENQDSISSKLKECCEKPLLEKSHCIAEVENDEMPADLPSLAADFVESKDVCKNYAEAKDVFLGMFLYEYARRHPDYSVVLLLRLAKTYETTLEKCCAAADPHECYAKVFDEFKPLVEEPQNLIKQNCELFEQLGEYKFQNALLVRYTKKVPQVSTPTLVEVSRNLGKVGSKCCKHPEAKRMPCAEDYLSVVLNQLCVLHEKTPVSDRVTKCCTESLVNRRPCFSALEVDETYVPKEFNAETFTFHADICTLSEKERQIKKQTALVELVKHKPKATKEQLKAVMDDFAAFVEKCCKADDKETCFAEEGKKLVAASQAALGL
Excerpt for Hydrophilicity (log P): The Log P value is a value for evaluating the hydrophilicity. When the P value is smaller than 1, the Log P value becomes negative to indicate the hydrophilicity. When the P value is greater than 1, the Log P value becomes positive to indicate lipophilicity.

Row | Compound | r1 [1] [mM⁻¹ s⁻¹] | log P (log Co/Cw) [2] | HSA bindin g affinity (%) (HSA [3]) | gallbladder contrast enhancement over time (liver) | r1 ([4]; 3.0-T, HSA) [mM⁻¹ s⁻¹] | r2 ([4]; 3.0-T, HSA) [mM⁻¹ s⁻¹] | r1 ([4]; 3.0-T, Water) [mM⁻¹ s⁻¹] | r2 ([4]; 3.0-T, Water) [mM⁻¹ s⁻¹] | r1 ([4]; 9.4-T, Water) [mM⁻¹ s⁻¹] | r2 ([4]; 9.4-T, Water) [mM⁻¹ s⁻¹] | log P (log Co/Cw) (Hydrophilicity (log P)) | HSA bindin g affinity (%) (HSA [5]) | brightness in MR image (C6 glioma)
1 | O=C(CCC(C(=O)[O-])N1CCN(C(CCC(=O)NCC(O)CO)C(=O)[O-])Cc2cccc(n2)CN(C(CCC(=O)NCC(O)CO)C(=O)[O-])CC1)NCC(O)CO.[Gd+3] (stereo not shown) [Gadopiclenol] | 11.3 | -4.2 | – | – | – | – | – | – | – | – | – | – | –
2 | O=C([O-])CN(CCN(CC(=O)[O-])CC(=O)[O-])CCN(CC(=O)[O-])C(COCc1ccccc1)C(=O)[O-].[Gd+3] (stereo not shown) [Gd-BOPTA] | – | – | 15.0 | initially enhanced, and then was observed to decrease slowly | 5.8 ± 0.2 | 9.0 ± 0.3 | 5.1 ± 0.02 | 6.8 ± 0.4 | 6.1 ± 1.1 | 8.1 ± 1.4 | – | – | –
3 | CCOc1ccc(C[C@@H](CN(CCN(CC(=O)[O-])CC(=O)[O-])CC(=O)[O-])N(CC(=O)[O-])CC(=O)[O-])cc1.[Gd+3].[Na+].[Na+] [Gd-EOB-DTPA] | – | – | – | initially enhanced, and then was observed to decrease slowly | 7.7 ± 0.1 | 11.1 ± 0.04 | 6.5 ± 0.04 | 7.3 ± 0.4 | 7.4 ± 1.4 | 10.7 ± 1.9 | -2.9 | 8.9 | –
4 | Gd-DO3A-butrol | – | – | – | – | 4.3 ± 0.1 | 6.5 ± 0.1 | 4.3 ± 0.2 | 5.5 ± 0.02 | 4.9 ± 0.9 | 6.4 ± 1.1 | -3.1 | 3.4 | comparable

Source: patent EP4582432A1, “NOVEL COMPOUND AND MRI CONTRAST AGENT COMPRISING SAME” (Theranocure Co., Ltd., priority 2022, dated 2024)
